The structures appear in SMILES notation.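 Interpolation was linear, between the two tested concentrations surrounding the appropriate level; five concentrations were tested over 48 hours in 96-well plates. GI50 marks 50% less growth. TGI denotes the concentration required for complete inhibition of growth.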

Experimental findings from PubChem BioAssay (NCI) are described below.

What all share (test): NCI tumour cell line growth inhibition, 48 h
For assay [1], the system named is MOLT-4 leukemia.
For assay [2], the system named is HT29 colon.
Assay [3] has as its system PC-3 prostate.
The test system of assay [4] is CCRF-CEM leukemia.
Assay [5] concerns K-562 leukemia.
Assay [6] concerns SK-MEL-28 melanoma.
Assay [7] relates to OVCAR-4 ovarian.
Assay [8] relates to OVCAR-3 ovarian.
Assay [9] deals with NCI-H226 lung.
Assay [10] relates to NCI/ADR-RES ovarian.

Take `C/C(=C1/N=C(c2ccccc2)OC1=O)c1cccs1`: the TGI in assay [1], in assay [2], in assay [3], in [4], in assay [5] and in [6] was > 100 µM in each case. In addition, the TGI in assay [7], in assay [8] and in assay [9] was > 100 µM throughout.
Turning to `O=C(Nc1cccc(Cl)c1)c1cc2cc(N=Nc3ccc(Br)cc3)ccc2oc1=O`, the TGI is 77.7 µM in assay [1]; > 100 µM in [2]; > 100 µM in assay [5]; > 100 µM in assay [6]; 88.7 µM in [7]; > 100 µM in [8].
As for `COCC(O)CN1C(N)=NC(O)C1O` (stereo not drawn), the TGI in assay [2], in [6] and in assay [9] was > 100 µM throughout.
As for `COc1ccc2nccc(C3OC(=O)N4CCC(=O)CC34)c2c1` (stereo not drawn), the TGI in assay [1], in assay [2], in [4], in [5], in assay [6] and in [7] was > 100 µM each time. Further, the TGI in [8] and in [9] was > 100 µM in each case.
Consider `CCCCCC1C2C(=O)NC(=O)C1C(=O)NC2=O` (stereo not drawn), for which the TGI in assay [1], in [2], in assay [4], in assay [5], in assay [6] and in [7] was > 100 µM throughout. For the same compound, the TGI in assay [8] and in assay [9] was > 100 µM each time.
As for `Cc1cccc(NC(=O)c2sc3nc4c(cc3c2N)CCC4)c1C`, the GI50 was 0.576 µM in assay [1]; 0.369 µM in [3]; 0.321 µM in assay [4]; 0.803 µM in assay [6]; 0.279 µM in [10]; 1.33 µM in assay [7]. The GI50 was 0.308 µM in assay [8] and 2.65 µM in assay [9]. For the same compound, the TGI is > 100 µM in assay [1]; 15.7 µM in [3]; 35.8 µM in assay [4]; 39.6 µM in assay [6]; 10.3 µM in assay [10]; 22.8 µM in assay [7]. The TGI was determined as 1.47 µM in assay [8] and 36.8 µM in [9].
For `O=[N+]([O-])c1ccc(-c2ccc(C3=Nn4c(nnc4-c4ccc(Cl)cc4)SC3)o2)cc1`, the TGI in assay [1], in assay [2], in assay [4], in [5], in assay [6] and in [7] was > 100 µM each time. Also, the TGI in assay [8] and in assay [9] was > 100 µM in each case.
Regarding `O=c1c2ccccc2nc(-c2ccccc2Cl)n1NC1OC(CO)C(O)C(O)C1O` (stereo not drawn), the TGI in [1], in assay [2], in assay [4], in assay [5], in [6] and in assay [7] was > 100 µM throughout. For the same compound, the TGI in [8] and in assay [9] was > 100 µM in each case.
For the compound `CC(=O)NC1C(=O)CC(c2ccccc2)N(C)C1c1ccccc1` (stereo not drawn), the TGI in assay [1], in [2], in assay [4], in assay [5], in assay [6] and in assay [7] was > 100 µM in each case. Further, the TGI in assay [8] and in assay [9] was > 100 µM in each case.
Take `Nc1cc2[nH]c(=O)c3cc(Cl)ccc3c2cc1Cl`: the TGI in assay [1] is > 100 µM; in assay [2], > 100 µM; in [4], > 100 µM; in assay [5] it was > 100 µM; in assay [6], > 100 µM; in assay [10], 86.1 µM. In addition, the TGI is > 100 µM in assay [7], 29.4 µM in assay [8] and 28.1 µM in assay [9].
Regarding `CC/C(=C(\c1ccccc1)c1ccc(OCC[N+](C)(C)C)cc1)c1ccccc1`, the TGI in [1] turned out to be 36.4 µM; in assay [2] it was 29.6 µM; in [4], 26.1 µM; in [5], 19.9 µM; in assay [6] it was 22.2 µM; in [7], 30.9 µM. Moreover, the values for the TGI in assay [8] and in [9] were 20.3 µM and 26.7 µM, respectively.
Take `Cc1ccc(S(=O)(=O)c2ccccn2)cc1`: the TGI in assay [1], in assay [2], in assay [4], in assay [5], in assay [6] and in assay [7] was > 100 µM in each case. In addition, the TGI in assay [8] and in assay [9] was > 100 µM in each case.
For `Oc1ccc(-c2nc(-c3ccc4oc5ccc(-c6[nH]c(-c7ccc(O)cc7)nc6-c6ccccc6)cc5c4c3)c(-c3ccccc3)[nH]2)cc1`, the GI50 was 2.34 µM in assay [1]; 3.8 µM in [2]; 2.93 µM in assay [3]; 7.39 µM in [6]; 16 µM in assay [10]; 18 µM in [7]. Besides, the values for the GI50 in [8] and in assay [9] were 4.3 µM and 13.3 µM, respectively. The TGI is 7.09 µM in assay [1]; 11.3 µM in assay [2]; 13.5 µM in assay [3]; 40 µM in [6]; > 100 µM in [10]; 96.9 µM in assay [7]. Also, the TGI in [8] was 15.2 µM; in assay [9], > 100 µM.
On to `Cc1nc2c(=O)n(C)c(=O)nc-2n(-c2ccc(Cl)cc2)c1C`, for which the TGI is > 100 µM in assay [2]; > 100 µM in assay [4]; > 100 µM in assay [5]; > 100 µM in assay [6]; 84.4 µM in [7]; > 100 µM in assay [8]. Moreover, the TGI in assay [9] is > 100 µM.
For the compound `S=C(N/N=C/c1ccccc1)NC1CC(c2ccccc2)Oc2ccccc21` (stereo not drawn), the TGI in assay [2] was > 100 µM; in assay [5], > 100 µM; in assay [6] it was > 100 µM; in [7], 71.3 µM; in assay [8] it was 28.7 µM; in [9], > 100 µM.
